A melting point compilation (Tetko et al.; mined from patent text by program, amines drawn as free bases though some values may be those of a salt)

Row | melting point | SMILES
1 | 247 to 249 °C | COc1ncccc1-c1cccn2nc(Nc3ccc4ncccc4c3)nc12
2 | 101 to 104 °C | CC(C)(C)OC(=O)n1cc(C=C(Br)Br)c2ccccc21
3 | 88.6 to 90.5 °C | CCOC(=O)c1ccc(-c2ccc(OCCCCCCCCCCCCBr)cc2)cc1
4 | 109 °C | Cc1cc(NC(C)(C)C)nc(Cl)c1C#N
5 | 115 to 116 °C | COc1ccc(CC(=O)O)c(C(C)=O)c1
6 | 138 to 140 °C | CC(C)(C)c1ccc(-c2cc(Nc3ccc4[nH]ccc4c3)nnc2-c2ccccc2)cc1
7 | 133 to 134 °C | COC(=O)C(=O)c1ccc(OCCOc2ccc3ccccc3c2)c(Cl)c1
8 | 172 °C | COc1ccc2[nH]c3c(C(=O)Nc4ccc(CCCCN(C)Cc5ccc(OC)c(OC)c5)cc4)cccc3c(=O)c2c1
9 | 45 to 46 °C | CC(O)c1cccc2c1OCO2 (centres undefined)
10 | 191 to 193 °C | CN1C(=O)CC(c2ccc(-c3ccc(F)cc3)cc2)C1C(O)c1ccc(-c2ccccc2)s1 (centres undefined)
11 | 122 to 123 °C | O=c1nc(-c2ccc(C(F)(F)F)cc2)sc2ccccc12
12 | 119 to 121 °C | CS(=O)(=O)Oc1ccc(C(c2ccc(OS(C)(=O)=O)c([N+](=O)[O-])c2)(C(F)(F)F)C(F)(F)F)cc1[N+](=O)[O-]
13 | 170 to 172 °C | CN1N=C(C2CCCCC2)CC1=O
14 | 112 to 118 °C | CCCCCCCCCCCCCCCCCC(=O)Oc1cc(C=CC(=O)c2ccccc2)cc([N+](=O)[O-])c1O
15 | 152 to 154 °C | COc1cccc(C(=O)Nc2ccc(C(C)=O)cc2)c1
16 | 108 to 109 °C | Cc1ccc(C2OC(=O)NC2=O)s1 (centres undefined)
17 | 167 to 169 °C | Nc1ccc(CCNC(=O)c2cc(O)c(O)c(O)c2)cc1
18 | 68 to 69 °C | CC(C)[C@@H](NC(=O)OCc1ccccc1)C(=O)C=[N+]=[N-]
19 | 80 to 82 °C | CCC(CC)Nc1c(N)cc(C)c(C)c1[N+](=O)[O-]
20 | 136 to 138 °C | CN(C(=O)C(Br)OC(N)=O)c1ccccc1 (centres undefined)
21 | > 250 °C | N#Cc1c(Cl)sc2[nH]c(=O)c(=O)[nH]c12
22 | 66 °C | COC(=O)Cc1sc(N=C2SC[C@@H]3Cc4ccccc4CN23)nc1C
23 | 270 to 271 °C | CC1Cc2c(F)c(F)cc3c(=O)c(C(=O)O)cn(c23)N1C (centres undefined)
24 | 218 to 220 °C | Clc1cccnc1-c1ccc2[nH]nc(Nc3cc[nH]n3)c2c1

Row | melting point | SMILES
25 | 130 to 131 °C | Cc1cc(N2CCN(Cc3ccccc3)C2=O)sc1C(=O)NCc1cccnc1
26 | 94 to 96 °C | NC(=O)c1ccc(CCCNCC(O)c2ccccc2)s1 (centres undefined)
27 | 162 to 165 °C | CC1(C)CC(NCCCCCCC(=O)O)CC(C)(C)N1
28 | 84 to 87 °C | CCCCCCCCCCCCCCOC(=O)c1cc(C(=O)OCCCCCCCCCCCCCC)cc(N(CC(=O)O)CC(=O)O)c1
29 | 175 to 177 °C | c1cc2c3c(c1)CNc1ccccc1N3CC2
30 | 221 °C | CN1CCC(OC(c2ccccc2)c2nc3cc(Cl)c(Cl)cc3[nH]2)CC1 (centres undefined)
31 | 176 °C | CC(=O)NC[C@H]1CN(c2ccc(N3CCN(c4ccc(C=O)o4)CC3)c(F)c2)C(=O)O1
32 | 124 to 126 °C | CC(C)c1cc(C(C)C)c(CC(=O)O)c(-c2ccc(F)cc2)c1CO
33 | 160 °C | O=C(/C=C/c1ccc2ccccc2n1)NO
34 | 148 to 151 °C | O=C(O)c1cc(S(=O)CC(=O)c2ccccc2)cc(C(F)(F)F)c1 (centres undefined)
35 | 252 to 254 °C | Nc1c(F)c(N2CCCC(n3ccnn3)C2)c(F)c2c1c(=O)c(C(=O)O)cn2C1CC1 (centres undefined)
36 | 192 to 194 °C | CC=CC=NNC(=O)c1cnccn1
37 | 90 to 93 °C | CN1C(=O)C(c2ccc(OC(F)F)cc2)(c2cccc(C#CCCO)c2)N=C1N (centres undefined)
38 | > 300 °C | O=c1c2ccc(Cl)cc2nc2n1CS(=O)(=O)N2
39 | 111 °C | CCCCCc1noc(-c2ccc(OCCC3CCN(c4ccc(C)nn4)CC3)cc2)n1
40 | 110 to 112 °C | CC(C)CCc1ccc(C#N)c(=O)[nH]1
41 | 243 to 245 °C | COc1ccc(C2S(=O)(=O)CCCS2(=O)=O)cc1OC
42 | 174 to 175 °C | c1ccc(N2CCN(c3nc4c(c(NC5CCCCC5)n3)SCC4)CC2)cc1
43 | 210 to 211 °C | CCCNC(=S)NS(=O)(=O)c1cc2c(cc1OC)OC(C)(C)C(NC(=O)c1cc(Cl)ccc1OC)C2 (centres undefined)
44 | 65 to 67 °C | CCSC(C)(C)C(=O)CC(=O)Nc1cc(NC(=O)C(CC)Oc2ccc(C(C)(C)CC)cc2C(C)(C)CC)ccc1OC (centres undefined)
45 | 214 to 215 °C | Clc1cccc(Nc2ncnc3[nH]nc(NCc4cccc5c4OCO5)c23)c1
46 | 195 to 197 °C | Clc1cccc2c1Sc1ccccc1N2C1=CCCN1C1=NCCC1
47 | 89 to 91 °C | CCOCCS(=O)(=O)C(F)(F)C(O)(Cn1cncn1)c1ccc(F)cc1F (centres undefined)
48 | 80 to 86 °C | O=C(O)Cc1ccc(OCCNC(=O)C2Cc3ccccc3N2S(=O)(=O)c2ccc(-c3cc(Cl)ccc3Cl)cc2)cc1 (centres undefined)

Row | melting point | SMILES
49 | 222 to 223 °C | Cc1ccc(C(=O)c2c(OCc3ccccc3)cc(C(=O)O)cc2[N+](=O)[O-])cc1
50 | 142 to 144 °C | Fc1ccc(C(=C(c2ccccc2)C(F)(F)F)c2ccc(OCCBr)cc2)cc1
51 | 233 °C | O=C(C=Cc1ccc(-c2ccc3ncnc(Nc4ccc(OCc5cccc(F)c5)c(Cl)c4)c3c2)o1)NOC1CCCCO1 (centres undefined)
52 | 134 to 136 °C | CN(C(=O)c1ccc(Cn2cnc3c(Cl)nc(Cl)nc32)cc1)C1CCCCC1
53 | 163 to 165 °C | CCCCc1oc2ccccc2c1S(=O)(=O)c1ccc(O)cc1
54 | 195 to 197 °C | COc1cc(Nc2c(C#N)cnc3cc(-c4ccc(CN5CCOCC5)nc4)ccc23)c(Cl)cc1Cl
55 | 159 to 161 °C | ONC1CCn2c1cc1ccccc12 (centres undefined)
56 | 237 to 240 °C | COCc1nc(N)nc(N)c1-c1cccc(Cl)c1Cl
57 | 173 to 175 °C | CC(C)n1nc(-c2nc(Oc3ccc(F)cc3)c(N)nc2-c2ccccc2)ccc1=O
58 | 240 to 250 °C | O=C(c1cc(O)c(O)c([N+](=O)[O-])c1)c1nc2ccccc2[nH]1
59 | 142 to 143 °C | Cc1cc(C(=O)c2[nH]c3cc(Cl)ccc3c2N)ccc1Cl
60 | 55 to 57 °C | C1=NC2=C(CCC1)CSC2
61 | 155 to 156 °C | CCc1nc2c(N)nc3ccccc3c2n1CCCCNC(=O)C(C)C
62 | 55 to 62 °C | CC(C)[C@H](C[C@H](O)[C@H](C)NC(=O)OC(C)(C)C)C(=O)NCCN
63 | 155 to 157 °C | CC(=O)Nc1nc(/C=C\c2ccc([N+](=O)[O-])cc2)cs1
64 | 241 to 243 °C | NS(=O)(=O)c1ccc(N2C(=O)CN(c3ccccc3)C2=O)c(Cl)c1
65 | 68 °C | Brc1csc2cc(OCc3ccccc3)ccc12
66 | 128 to 131 °C | c1ccc2c(N3CCCCC3)nc(N3CCCCC3)nc2c1
67 | 204 to 205 °C | Cc1c(NC(=O)C(CSC(=O)c2ccccc2)Cc2ccccc2)cccc1C(=O)O (centres undefined)
68 | 192 °C | CCCCn1nnc2cc(C(=O)O)ccc21
69 | 134 to 137 °C | O=C(NCC1CCCCN1)c1cc(O)ccc1OCC(F)(F)F (centres undefined)
70 | 79 to 80 °C | O=C(O)Cc1ccccc1OCCC(c1ccccc1)(c1ccccc1)c1ccccc1
71 | 168 to 169 °C | Nc1ccnc2cc(Br)cnc12
72 | 214 to 216 °C | CN(c1ccc2sccc2c1)c1nc(=O)c2cccnc2s1

Row | melting point | SMILES
73 | 123 to 125 °C | CC(C)c1cccc(C(C)C)c1NC(=O)CN1CCN(c2cccc(Sc3nc4ccccc4[nH]3)c2)CC1
74 | 111 °C | O=C(CBr)c1ccc(S(=O)(=O)Cl)cc1
75 | 120 to 121 °C | COc1cc(OC)c(C(=O)n2cccc2Br)cc1OC
76 | 283 to 286 °C | Cc1ccc(N2C(=O)C(O)=C(C(=O)c3ccc(C(C)C)cc3)C2c2ccc(N(C)C)cc2)nn1 (centres undefined)
77 | 280 to 282 °C | Cn1cnc(C=CC(=O)NC2CCNC(=O)C2)c1 (centres undefined)
78 | 246 to 248 °C | COc1ccc(-c2ccc(C(=O)Nc3ccc4cc(CN5CCCC5)cnc4c3)cn2)cc1
79 | 103 to 104 °C | CCOC(=O)C1=C(C(OCC)OCC)NC(C)=C(C(=O)OCc2ccccc2)C1c1ccccc1[N+](=O)[O-] (centres undefined)
80 | 130 to 131 °C | O=C(O)CCCC=Cc1nn(-c2ccccc2)c2c1CCC2
81 | 112 to 116 °C | Cc1ccc(NC(=O)/C=C/c2ccccc2C(F)(F)F)cc1NC(=N)c1ccccc1
82 | > 350 °C | Oc1cc(-c2ccc(Cl)cc2)nc2ccc(F)cc12
83 | 135 to 136 °C | CCCN(CCC)S(=O)(=O)c1cccc(C(=O)Nc2ccc(Br)cc2C)c1
84 | 108 to 110 °C | COC(=O)c1ncsc1CCNC(=O)OCc1ccccc1
85 | 174 to 176 °C | O=C(c1ccc(C2=CCCc3ccccc32)cc1Cl)N1Cc2cccn2Cc2ccccc21
86 | 88 to 91 °C | COc1ccc(C2(C#Cc3cccc(-c4nc(C)no4)c3)CCC(=O)CC2)cc1OC1CCCC1
87 | 118 to 119 °C | COc1ccc(C[C@H]2CC[C@@H]3[C@@H](CCC(=O)N3Cc3ccccc3)C2)cc1
88 | 188 to 190 °C | O=C(O)/C=C/C#Cc1cccc(S(=O)(=O)Nc2ccccc2)c1
89 | 258 to 260 °C | Nc1nc2c(sc(=O)n2CCCCO)c(=O)[nH]1
90 | 118 °C | CCCCC(Nc1ccncc1)c1ccccc1 (centres undefined)
91 | 216 to 220 °C | CCn1cc(C2(c3cccc(-c4cncc(F)c4)c3)N=C(N)N(C)C2=O)cn1 (centres undefined)
92 | 155 to 158 °C | Nc1cccc(S(=O)(=O)Nc2nncs2)c1
93 | 143 °C | CCOc1c(N)c2c(c(OCC)c1OCC)C(C1c3cc(OC)c(OC)cc3CCN1C)OC2=O (centres undefined)
94 | 175 to 178 °C | OCC1OC(n2cnc3c(N4CCOCC4)ncnc32)CC1F (centres undefined)

Row | SMILES | melting point
95 | CN(C)c1ccc(C2CC3(C)C(O)CC(O)C3C3CCC4CC5(CCC4=C23)OCCO5)cc1 (centres undefined) | 107 to 109 °C
96 | CCOC(=O)c1cccc(C2(C(N)=O)C(=O)N(CC(=O)N(c3ccccc3)C(C)C)c3ccccc3N(c3ccccc3)C2=O)c1 (centres undefined) | 187 to 188 °C
97 | CCCN(CCC)C1COc2cccc(C(=O)C3CC3)c2C1 (centres undefined) | 100 to 102 °C
98 | N#Cc1ccc(NC(=O)NC(=O)c2c(F)cccc2F)c(Cl)c1Cl | 285 to 287 °C
99 | COC(=O)C(=O)O[C@H]1C[C@@H](C(=O)OC)[C@]2(C)CC[C@H]3C(=O)O[C@H](c4ccoc4)C[C@]3(C)[C@H]2C1=O | 241 to 244 °C
